Test results reported in patent US11970476B1, “6′-(4-chlorophenyl)-2′-alkoxy-3,4′-bipyridine-3′-carbonitriles as antimicrobial compounds” (KING FAISAL UNIVERSITY, priority 2023, dated 2024).

Legend:
Format in all cases: cell-based
Pseudomonas aeruginosa = assay: Agar plate disc-diffusion, antibacterial inhibition zone; conditions: DMSO control zone subtracted
Method: (§1) The agar plate disc-diffusion method was applied. Sterilized filter papers (6 mm in diameter) were wetted with 10 μL of a solution of 6′-(4-chlorophenyl)-2′-ethoxy-3,4′-bipyridine-3′-carbonitrile (4) or 6′-(4-chlorophenyl)-2′-methoxy-3,4′-bipyridine-3′-carbonitrile (5) to be tested, containing […], and the discs were allowed to air dry. The discs were then placed onto the surface of agar plates (nutrient agar for bacteria and Sabouraud's dextrose agar for fungi) seeded with the test organism. Each plate contained 15 mL of the agar medium, previously seeded with 0.2 mL of the broth culture of each organism pregrown for 18 hours. The plates were incubated at 37° C. for 48 hours, and 72 hours for fungi. The inhibition zones were measured in mm. Discs impregnated with DMSO were used as a control, and its inhibition zone was subtracted from the tested compound actual inhibition zone.
(§2) The results of the antimicrobial testing can be observed in Tables 1 and 2, below, using ciprofloxacin as a reference.

Bacillus cereus = assay: as above; conditions: DMSO control zone subtracted
Method: as §1, §2

Staphylococcus aureus = assay: as above; conditions: DMSO control zone subtracted
Method: as §1, §2

Escherichia coli = assay: as above; conditions: DMSO control zone subtracted
Method: as §1, §2

Aspergillus flavus = assay: Agar plate disc-diffusion, antifungal inhibition zone; conditions: 72 hours, DMSO control zone subtracted
Method: as §1, §2

[1] = tested on: Chrysosporium keratinophilum; assay: as above; conditions: 72 hours, DMSO control zone subtracted
Method: as §1, §2

different microbes = assay: Antimicrobial testing, overall statement on Tables 1 and 2; conditions: summary of Tables 1 and 2, bacteria and fungi
Method: as §1
Their antibacterial activity was screened against gram positive bacteria namely Bacillus cereus and Staphylococcus aureus and gram-negative bacterial strains namely Pseudomonas aeruginosa and Escherichia coli, while their antifungal activity was screened against Aspergillus flavus and Chrysosporium keratinophilum.

[2] = A = concentration of comp. = 10,000 μL
[3] = B = concentration of comp. = 30,000 μL
[4] = C = concentration of comp. = 50,000 μL

Row | SMILES | inhibition zone (Pseudomonas aeruginosa; [2]) | inhibition zone (Pseudomonas aeruginosa; [3]) | inhibition zone (Pseudomonas aeruginosa; [4]) | inhibition zone (Bacillus cereus; [2]) | inhibition zone (Bacillus cereus; [3]) | inhibition zone (Bacillus cereus; [4]) | inhibition zone (Staphylococcus aureus; [2]) | inhibition zone (Staphylococcus aureus; [3]) | inhibition zone (Staphylococcus aureus; [4]) | inhibition zone (Escherichia coli; [2]) | inhibition zone (Escherichia coli; [3]) | inhibition zone (Escherichia coli; [4]) | inhibition zone (Aspergillus flavus; [2]) | inhibition zone (Aspergillus flavus; [3]) | inhibition zone (Aspergillus flavus; [4]) | inhibition zone [1, 2] | inhibition zone [1, 3] | inhibition zone [1, 4] | antimicrobial activities (in words) (different microbes)
1 | O=C(O)c1cn(C2CC2)c2cc(N3CCNCC3)c(F)cc2c1=O [Cip., ciprofloxacin, reference compound] | 29 mm | 30 mm | 53 mm | 29 mm | 30 mm | 42 mm | 43 mm | 44 mm | 53 mm | 30 mm | 39 mm | 60 mm | 29 mm | 30 mm | 42 mm | 29 mm | 30 mm | 53 mm | –
2 | CCOc1nc(-c2ccc(Cl)cc2)cc(-c2cccnc2)c1C#N [Compound 4, 6′-(4-chlorophenyl)-2′-ethoxy-3,4′-bipyridine-3′-carbonitrile] | 25 mm | 29 mm | 39 mm | 24 mm | 27 mm | 39 mm | 15 mm | 18 mm | 31 mm | 27 mm | 38 mm | 52 mm | 21 mm | 26 mm | 37 mm | 24 mm | 29 mm | 42 mm | high antimicrobial activities
3 | COc1nc(-c2ccc(Cl)cc2)cc(-c2cccnc2)c1C#N [Compound 5, 6′-(4-chlorophenyl)-2′-methoxy-3,4′-bipyridine-3′-carbonitrile] | 26 mm | 30 mm | 42 mm | 26 mm | 28 mm | 39 mm | 17 mm | 24 mm | 30 mm | 28 mm | 37 mm | 53 mm | 25 mm | 28 mm | 40 mm | 23 mm | 28 mm | 41 mm | high antimicrobial activities
